Laboratory results from ChEMBL document CHEMBL1148821, “4-anilino-5-carboxamido-2-pyridone derivatives as noncompetitive inhibitors of mitogen-activated protein kinase kinase” (J Med Chem, 2007).

How the values were obtained:
[1] = Toxicity in colon 26 tumor-bearing CD2F1 mouse assessed as lethality at 100 mg/kg; format: organism-based; design: dose 100 mg/kg; details: in vivo, read-out: Activity
[2] = Toxicity in colon 26 tumor-bearing CD2F1 mouse assessed as lethality at 200 mg/kg; format: organism-based; design: dose 200 mg/kg; details: in vivo, read-out: Activity

Which mortality [1] does the source give for `Cn1cc(C(N)=O)c(Nc2ccc(I)cc2F)cc1=O` here?
The mortality was 40%.

What about the mortality [2] of the same compound?
Its mortality is 100%.
